≈ marks a conversion by molar mass, not a printed value. Like-named read-outs stand apart in the source and are kept apart here.
How the values were obtained:
[1] = test system: Klebsiella pneumoniae
[2] = test system: Bacteroides vulgatis 1211; experiment: MIC against anaerobic bacteria, agar dilution; assay type: cell-based; conditions: strain 1211
[3] = Acute toxicity, intraperitoneal; assay type: in vivo; conditions: mice, intraperitoneally
Procedure: Antibiotic A47934, when given intraperitoneally to mice, has an acute toxicity greater than 300 mg./kg.

[4] = test system: Fusobacterium necrophorum 6054A; experiment: MIC against anaerobic bacteria, agar dilution; assay type: cell-based; conditions: strain 6054A
[5] = test system: Peptococcus prevoti 1281; conditions: strain 1281; agar dilution
[6] = test system: S. aureus (3055); experiment: In vivo activity against experimental bacterial infection; conditions: mice, two doses subcutaneously; S. aureus (3055) infection
[7] = test system: Bacteroides thetaiotaomicron 1438; experiment: MIC against anaerobic bacteria, agar dilution; assay type: cell-based; conditions: strain 1438
[8] = test system: Fusobacterium symbiosum 1470; experiment: MIC against anaerobic bacteria, agar dilution; assay type: cell-based; conditions: strain 1470
[9] = test system: Streptococcus Group D; experiment: MIC against a variety of bacteria, standard agar-dilution; assay type: cell-based
[10] = test system: Clostridium difficile strains; experiment: MIC against Clostridium difficile strains, agar-dilution; assay type: cell-based
Description: Antibiotic A47934 is also active against a number of strains of Clostridium difficile, as determined by the agar-dilution method.

[11] = test system: Clostridium difficile 2994; experiment: MIC against anaerobic bacteria, agar dilution; assay type: cell-based; conditions: strain 2994
[12] = test system: Bacteroides fragilis; experiment: MIC against anaerobic bacteria, agar dilution; assay type: cell-based
[13] = Precipitation from broth filtrate on acidification; assay type: physicochemical; conditions: broth filtrate acidified
Description: Antibiotic A47934 can also be removed from the broth filtrate by adjusting such filtrate to about pH 3 with acid, for complete precipitation, followed by filtration. A47934 starts to precipitate at about pH 6.5 and is complete at about pH 3. Inorganic acids such as hydrochloric, sulfuric, and phosphoric, and organic acids such as acetic acid and formic acid are suitable for acidification. The crude A47934 thus obtained can be further purified by chromatographic procedures.

[14] = Test 3: growth promotion in weanling pigs; assay type: in vivo; conditions: 28 days
Procedure: Antibiotic A47934 was tested at levels of 10 and 50 ppm. in the diet of pigs initially weighing an average of about 23 pounds, compared with […]) administered in the diet at 110 ppm. The experiment was conducted in an environmentally controlled nursery facility with wire mesh floors in the pens. There were four replicates per treatment and four pigs per replicate for the 28-day experiment. There were six replicates of four pigs per replicate in the control group, which group received the unmedicated diet. The pigs were fed ad libitum on an 18 percent protein corn-soy ration having the following composition: At the end of the trial, the average weight of the individual pig had increased to 53 pounds.

[15] = test system: Peptostreptococcus anaerobius 1428; experiment: MIC against anaerobic bacteria, agar dilution; assay type: cell-based; conditions: strain 1428
[16] = test system: Propionibacterium acnes 79; experiment: MIC against anaerobic bacteria, agar dilution; assay type: cell-based; conditions: strain 79
[17] = test system: S. pyogenes C203; experiment: In vivo activity against experimental bacterial infection; conditions: mice, two doses subcutaneously
[18] = test system: Peptococcus asaccharolyticus 1302; experiment: MIC against anaerobic bacteria, agar dilution; assay type: cell-based; conditions: strain 1302
[19] = test system: Clostridium septicum 1128; experiment: MIC against anaerobic bacteria, agar dilution; assay type: cell-based; conditions: strain 1128
[20] = test system: Bacteroides melaninogenicus; experiment: MIC against anaerobic bacteria, agar dilution; assay type: cell-based
[21] = test system: Staphylococcus epidermidis; experiment: MIC against a variety of bacteria, standard agar-dilution; assay type: cell-based
[22] = test system: Staphylococcus aureus; experiment: as above; assay type: cell-based
[23] = test system: Bacteroides corrodens 1874; experiment: MIC against anaerobic bacteria, agar dilution; assay type: cell-based; conditions: strain 1874
[24] = test system: Streptococcus pneumoniae Park 1; experiment: MIC against a variety of bacteria, standard agar-dilution; assay type: cell-based; conditions: strain Park 1
[25] = test system: Salmonella typhi; experiment: as above; assay type: cell-based
[26] = test system: S. pneumoniae (Park I); experiment: In vivo activity against experimental bacterial infection; conditions: mice, two doses subcutaneously
[27] = test system: Escherichia coli
[28] = test system: Streptococcus pyogenes C203; experiment: MIC against a variety of bacteria, standard agar-dilution; assay type: cell-based; conditions: strain C203
[29] = test system: Eubacterium aerofaciens 1235; experiment: MIC against anaerobic bacteria, agar dilution; assay type: cell-based; conditions: strain 1235
[30] = Test 2: growth promotion in chickens; assay type: in vivo, 8-day old Penobscot broilers; conditions: chicks, 20 g./T. of feed, 21 days
Description: Chicks, 8-day old Penobscot broilers, were used in this test. A total of 560 chicks were used divided into groups of 7 birds each. […] The broiler starter ration has the following composition: Feed and water were available to all groups ad libitum for 21 days. Two time replicates were run.

[31] = test system: Haemophilus influenza; experiment: MIC against a variety of bacteria, standard agar-dilution; assay type: cell-based
[32] = test system: volatile fatty acids produced in the rumen; experiment: Test 1: in vitro modification of the ratio of volatile fatty acids produced in the rumen
Description: The effectiveness of antibiotic A47934 in modifying the ratio of volatile fatty acids produced in the rumen has been determined using the in vitro test described in Raun, U.S. Pat. No. 3,928,571 (Dec. 23, 1975), see the EXAMPLE therein. The data in Table 9, which follows, are reported as the ratio of VFA's produced in treated flasks to VFA's produced in untreated control flasks.

[33] = test system: Clostridium perfringens 81; assay type: cell-based; conditions: strain 81; agar dilution
[34] = test system: Peptostreptococcus intermedius 1264; experiment: MIC against anaerobic bacteria, agar dilution; assay type: cell-based; conditions: strain 1264

N[C@H]1C(=O)N[C@@H]2Cc3ccc(c(Cl)c3)Oc3cc4cc(c3O)Oc3ccc(cc3Cl)[C@@H](O)[C@@H]3NC(=O)[C@H](NC(=O)[C@@H]4NC(=O)[C@@H](NC2=O)c2cc(O)cc(c2)Oc2cc1ccc2OS(=O)(=O)O)c1cc(Cl)c(O)c(c1)-c1c(O)cc(O)cc1[C@@H](C(=O)O)NC3=O [Antibiotic A47934]
MIC ([1]; strain KAE): > 128.0 µg/mL | MIC ([1]; strain X26): > 128.0 µg/mL | MIC [2]: 32.0 µg/mL (≈ 24.4 µM) | acute toxicity [3]: greater than 300 mg./kg. | MIC [4]: 0.25 µg/mL (≈ 0.19 µM) | MIC [5]: 1.0 µg/mL (≈ 0.761 µM) | ED50 [6]: < 0.3 mg./kg. × 2 | MIC [7]: 32.0 µg/mL (≈ 24.4 µM) | MIC [8]: 2.0 µg/mL (≈ 1.52 µM) | MIC ([9]; strain 9960): 0.5 µg/mL (≈ 0.381 µM) | MIC ([9]; strain X66): 0.5 µg/mL (≈ 0.381 µM) | MIC ([10]; strain 78): ≤ 0.5 µg/mL | MIC ([10]; strain 107B): ≤ 0.5 µg/mL | MIC ([10]; strain 111F): ≤ 0.5 µg/mL | MIC ([10]; strain 1153): ≤ 0.5 µg/mL | MIC ([10]; strain 2634): ≤ 1.0 µg/mL | MIC ([10]; strain 3424-5B): ≤ 0.5 µg/mL | MIC ([10]; strain 3816): ≤ 0.5 µg/mL | MIC ([10]; strain 3950D): ≤ 0.5 µg/mL | MIC ([10]; strain 6890): ≤ 0.5 µg/mL | MIC ([10]; strain 8484): ≤ 0.5 µg/mL | MIC ([10]; strain A-194): ≤ 0.5 µg/mL | MIC ([10]; strain A-195): ≤ 0.5 µg/mL | MIC ([10]; strain A-196): ≤ 0.5 µg/mL | MIC ([10]; strain A-279): ≤ 1.0 µg/mL | MIC ([10]; strain A-280): ≤ 0.5 µg/mL | MIC ([10]; strain A-281): ≤ 0.5 µg/mL | MIC ([10]; strain WAL-2112): ≤ 0.5 µg/mL | MIC ([10]; strain WAL-3657): ≤ 0.5 µg/mL | MIC ([10]; strain WAL-4268): ≤ 0.5 µg/mL | MIC [11]: 0.5 µg/mL (≈ 0.381 µM) | MIC ([12]; strain 111): 32.0 µg/mL (≈ 24.4 µM) | MIC ([12]; strain 1877): 32.0 µg/mL (≈ 24.4 µM) | MIC ([12]; strain 1936B): 32.0 µg/mL (≈ 24.4 µM) | pH at which A47934 starts to precipitate [13]: ~6.5 pH | pH at which precipitation is complete [13]: ~3 pH | ADF % Im-crease ([14]; 10 ppm in diet): -3.2% | ADF (average daily feed consumption) ([14]; 10 ppm in diet): 1.83 lbs. | ADG % Im-crease ([14]; 10 ppm in diet): 3.1% | ADG (average daily gain) ([14]; 10 ppm in diet): 1.00 lbs. | F/G % Improvement ([14]; 10 ppm in diet): 7.6% | F/G (ratio of feed consumption to gain) ([14]; 10 ppm in diet): 1.82 | ADF % Im-crease ([14]; 50 ppm in diet): 4.7% | ADF (average daily feed consumption) ([14]; 50 ppm in diet): 1.98 lbs. | ADG % Im-crease ([14]; 50 ppm in diet): 10.3% | ADG (average daily gain) ([14]; 50 ppm in diet): 1.07 lbs. | F/G % Improvement ([14]; 50 ppm in diet): 6.1% | F/G (ratio of feed consumption to gain) ([14]; 50 ppm in diet): 1.85 | MIC [15]: 0.25 µg/mL (≈ 0.19 µM) | MIC [16]: 1.0 µg/mL (≈ 0.761 µM) | ED50 [17]: 3.38 mg./kg. × 2 | MIC [18]: 0.5 µg/mL (≈ 0.381 µM) | MIC [19]: 0.5 µg/mL (≈ 0.381 µM) | MIC ([20]; strain 1856/28): > 128.0 µg/mL | MIC ([20]; strain 2736): 16.0 µg/mL (≈ 12.2 µM) | MIC ([21]; strain EPI1): 0.25 µg/mL (≈ 0.19 µM) | MIC ([21]; strain EPI2): 2.0 µg/mL (≈ 1.52 µM) | MIC [22]: 0.125 µg/mL (≈ 0.0952 µM) | MIC ([22]; strain S13E): 0.125 µg/mL (≈ 0.0952 µM) | MIC ([22]; strain X1.1): 0.06 µg/mL (≈ 0.0457 µM) | MIC ([22]; strain X400): 0.25 µg/mL (≈ 0.19 µM) | MIC [23]: 32.0 µg/mL (≈ 24.4 µM) | MIC [24]: 0.06 µg/mL (≈ 0.0457 µM) | MIC ([25]; strain 1335): > 128 µg/mL | MIC ([25]; strain X514): > 128 µg/mL | ED50 [26]: 1.77 mg./kg. × 2 | MIC ([27]; strain EC14): > 128.0 µg/mL | MIC ([27]; strain N10): > 128.0 µg/mL | MIC ([27]; strain TEM): > 128.0 µg/mL | MIC [28]: 0.25 µg/mL (≈ 0.19 µM) | MIC [29]: 1.0 µg/mL (≈ 0.761 µM) | Feed Efficiency % Impr. ([30]; first time replicate): 4.69% | Feed Efficiency F/G ([30]; first time replicate): 1.707 | Weight Gain ([30]; first time replicate): 519 gm. | Weight Gain % Impr. ([30]; first time replicate): 7.23% | Feed Efficiency F/G ([30]; second time replicate): 1.746 | Weight Gain ([30]; second time replicate): 464 gm. | Weight Gain % Impr. ([30]; second time replicate): 0% | MIC ([31]; strain 76): 4.0 µg/mL (≈ 3.05 µM) | MIC ([31]; strain C.L.): 2.0 µg/mL (≈ 1.52 µM) | Acetate, ratio of VFA produced in treated flasks to untreated control flasks ([32]; 1 mcg./ml.): 0.99 | Butyrate, ratio of VFA produced in treated flasks to untreated control flasks ([32]; 1 mcg./ml.): 1.01 | Propionate, ratio of VFA produced in treated flasks to untreated control flasks ([32]; 1 mcg./ml.): 1.11 | Acetate, ratio of VFA produced in treated flasks to untreated control flasks ([32]; 2 mcg./ml.): 1.09 | Butyrate, ratio of VFA produced in treated flasks to untreated control flasks ([32]; 2 mcg./ml.): 1.03 | Propionate, ratio of VFA produced in treated flasks to untreated control flasks ([32]; 2 mcg./ml.): 1.10 | Acetate, ratio of VFA produced in treated flasks to untreated control flasks ([32]; 4 mcg./ml.): 0.81 | Butyrate, ratio of VFA produced in treated flasks to untreated control flasks ([32]; 4 mcg./ml.): 1.03 | Propionate, ratio of VFA produced in treated flasks to untreated control flasks ([32]; 4 mcg./ml.): 1.32 | Acetate, ratio of VFA produced in treated flasks to untreated control flasks ([32]; 10 mcg./ml.): 0.95 | Butyrate, ratio of VFA produced in treated flasks to untreated control flasks ([32]; 10 mcg./ml.): 1.00 | Propionate, ratio of VFA produced in treated flasks to untreated control flasks ([32]; 10 mcg./ml.): 1.12 | MIC [33]: 0.5 µg/mL (≈ 0.381 µM) | MIC [34]: 1.0 µg/mL (≈ 0.761 µM)

CC[C@H]1OC(=O)C[C@@H](O)[C@H](C)[C@@H](O[C@@H]2O[C@H](C)[C@@H](O[C@H]3C[C@@](C)(O)[C@@H](O)[C@H](C)O3)[C@H](N(C)C)[C@H]2O)[C@@H](CC=O)C[C@@H](C)C(=O)/C=C/C(C)=C/[C@@H]1CO[C@@H]1O[C@H](C)[C@@H](O)[C@@H](OC)[C@H]1OC [Tylan, tylosin, reference compound]
ADF % Im-crease ([14]; 110 ppm in diet): 2.6% | ADF (average daily feed consumption) ([14]; 110 ppm in diet): 1.94 lbs. | ADG % Im-crease ([14]; 110 ppm in diet): 4.1% | ADG (average daily gain) ([14]; 110 ppm in diet): 1.01 lbs. | F/G % Improvement ([14]; 110 ppm in diet): 2.5% | F/G (ratio of feed consumption to gain) ([14]; 110 ppm in diet): 1.92
